From ChEMBL document CHEMBL3632460, “Discovery of a Novel Series of Imidazo[1,2-a]pyrimidine Derivatives as Potent and Orally Bioavailable Lipoprotein-Associated Phospholipase A2 Inhibitors” (J Med Chem, 2015)
Calls of active or inactive are those of the source. No cut-off for these calls is given here.

What was measured:
Rattus norvegicus [1] = assay: In vivo inhibition of Lp-PLA2 in Sprague-Dawley rat at 25 mg/kg, po after 5 hrs; type: functional
Rattus norvegicus [2] = organism: Rattus norvegicus; settings: Sprague-Dawley, Plasma, 10 nM
Description: Inhibition of Lp-PLA2 in Sprague-Dawley rat plasma at 10 nM using 2-thio-PAF substrate after 10 mins

in vivo [3] = settings: Sprague-Dawley, rat, po, 25 mg/kg
Description: Terminal half life in Sprague-Dawley rat at 25 mg/kg, po after 48 hrs by LC-MS method

in vitro [4] = settings: Wistar, rat, liver S9 fractions
in vivo [5] = settings: Sprague-Dawley, rat, po, 25 mg/kg; remark: listed apart in the source
Description: Cmax in Sprague-Dawley rat at 25 mg/kg, po after 48 hrs by LC-MS method

in vitro [6] = settings: human, liver S9 fractions
in vivo [7] = settings: Sprague-Dawley, rat, po, 25 mg/kg; remark: listed apart in the source
Description: AUC (0 to infinity) in Sprague-Dawley rat at 25 mg/kg, po after 48 hrs by LC-MS method

Rattus norvegicus [8] = organism: Rattus norvegicus; settings: Sprague-Dawley, 25 mg/kg
Description: In vivo inhibition of Lp-PLA2 in Sprague-Dawley rat at 25 mg/kg, po measured over 24 hrs

[9] = target: T1, Platelet-activating factor acetylhydrolase (Mus musculus) (UniProt Q60963); settings: Plasma, at 1 µM
T1 sequence (whole entry): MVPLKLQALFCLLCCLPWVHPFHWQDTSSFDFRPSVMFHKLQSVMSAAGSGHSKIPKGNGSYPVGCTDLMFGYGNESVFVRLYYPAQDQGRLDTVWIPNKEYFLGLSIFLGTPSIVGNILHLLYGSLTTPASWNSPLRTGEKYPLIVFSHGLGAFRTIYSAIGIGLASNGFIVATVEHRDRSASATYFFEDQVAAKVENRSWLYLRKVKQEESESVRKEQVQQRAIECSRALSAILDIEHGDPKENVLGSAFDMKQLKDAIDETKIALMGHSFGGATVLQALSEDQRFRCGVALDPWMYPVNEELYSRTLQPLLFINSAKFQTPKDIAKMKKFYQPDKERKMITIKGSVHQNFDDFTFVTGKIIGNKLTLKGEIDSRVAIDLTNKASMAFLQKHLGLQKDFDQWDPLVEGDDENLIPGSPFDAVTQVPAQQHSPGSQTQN
Description: Inhibition of Lp-PLA2 in mouse plasma at 1 uM using 2-thio-PAF substrate after 10 mins

[10] = Cmax in Sprague-Dawley rat at 50 mg/kg, po after 48 hrs by LC-MS method; type: ADME, organism-based; set-up: dose 50 mg/kg, route oral; settings: in vivo
[11] = target: T1, Platelet-activating factor acetylhydrolase (Mus musculus); settings: Plasma, at 100 nM
[12] = Terminal half life in Sprague-Dawley rat at 50 mg/kg, po after 48 hrs by LC-MS method; type: ADME, organism-based; settings: in vivo, read-out: beta t1/2 (converted)
[13] = AUC (0 to infinity) in Sprague-Dawley rat at 50 mg/kg, po after 48 hrs by LC-MS method; type: ADME, organism-based; set-up: dose 50 mg/kg, route oral, time infinity; settings: in vivo
in vitro [14] = settings: human, liver S9 fractions; remark: listed apart in the source
in vitro [15] = settings: Wistar, rat, liver S9 fractions; remark: listed apart in the source

Molecule `Fc1cc(COc2ccn3c(-c4cncnc4)cnc3n2)ccc1Oc1ccc(Cl)c(C(F)(F)F)c1` has an inhibition in vivo at 25 mg/kg (Rattus norvegicus [1]) of 75%, an inhibition (Rattus norvegicus [2]) of 11% and a half-life at 48 h (in vivo [3]) of 800 min. It also gave a half-life at 0.1 µM (in vitro [4]) of 169 min, a Cmax at 48 h (in vivo [5]) of 2600 ng/mL and a half-life at 0.1 µM (in vitro [6]) of 331 min. For the same molecule, the AUC(0-inf) at 48 h (in vivo [7]) was 78100 ng·h/mL, the inhibition (Rattus norvegicus [8]) was “Active” and the inhibition [9] was 13%.

With `CCN(CC)CCN(Cc1ccc(-c2ccc(C(F)(F)F)cc2)cc1)C(=O)Cn1c(SCc2ccc(F)cc2)nc(=O)c2c1CCC2` [DARAPLADIB] the Cmax [10] was 150 ng/mL, the inhibition [11] was 96% and the inhibition [9] was 99%. The half-life [12] was 690 min and the AUC(0-inf) [13] was 2110 ng·h/mL.

For `FC(F)(F)c1cc(Oc2ccc(COc3ccn4c(-c5cncnc5)cnc4n3)cc2)ccc1Cl`, the inhibition in vivo at 25 mg/kg (Rattus norvegicus [1]) was 75%, the inhibition (Rattus norvegicus [2]) was 10% and the half-life at 48 h (in vivo [3]) was 566 min. It also gave a half-life at 0.1 µM (in vitro [4]) of 348 min, a Cmax at 48 h (in vivo [5]) of 3520 ng/mL and an inhibition [11] of 10%. For the same molecule, the half-life at 0.1 µM (in vitro [6]) was 116 min, the AUC(0-inf) at 48 h (in vivo [7]) was 88000 ng·h/mL and the inhibition (Rattus norvegicus [8]) was “Active”. The inhibition [9] was 56%.

In the case of `FC(F)(F)c1cc(Oc2ccc(CCOc3ccn4c(-c5cncnc5)cnc4n3)cc2)ccc1Cl`, the half-life at 0.1 µM (in vitro [4]) is reported as 110 min, the CLint scaled at 0.1 µM (in vitro [14]) is reported as 55.1 mL/min/kg and the CLint scaled at 0.1 µM (in vitro [15]) is reported as 34.3 mL/min/kg. It also gave an inhibition [11] of 2%, a half-life at 0.1 µM (in vitro [6]) of 42 min and an inhibition [9] of 53%.

`Cn1cc(-c2cnc3nc(OCc4ccc(Oc5ccc(Cl)c(C(F)(F)F)c5)cc4)ccn23)cn1` showed an inhibition (Rattus norvegicus [2]) of 13%, a half-life at 0.1 µM (in vitro [6]) of 180 min and an inhibition [9] of 28%.

`Fc1cc(COc2ccn3c(-c4cncnc4)cnc3n2)cc(F)c1Oc1ccc(Cl)c(C(F)(F)F)c1` showed a half-life at 0.1 µM (in vitro [4]) of 196 min, a half-life at 0.1 µM (in vitro [6]) of 212 min and an inhibition [9] of 8%.

For `N#Cc1cc(COc2ccn3c(-c4cncnc4)cnc3n2)ccc1Oc1ccc(Cl)c(C(F)(F)F)c1`, the inhibition (Rattus norvegicus [2]) was 14%, the half-life at 48 h (in vivo [3]) was 194 min and the half-life at 0.1 µM (in vitro [4]) was 40 min. The Cmax at 48 h (in vivo [5]) was 1400 ng/mL, the half-life at 0.1 µM (in vitro [6]) was 106 min and the AUC(0-inf) at 48 h (in vivo [7]) was 16100 ng·h/mL. The inhibition [9] was 0%.
